Assay results: PubChem BioAssay (NCI)
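The compound was tested at five concentrations on cells cultured in 96-well plates, with a 48-hour exposure period. At the GI50, growth is halved. TGI: concentration producing complete growth inhibition.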

Experiments:
Assay in all cases: NCI-60 cell line screen, 48 h
SK-MEL-2 melanoma = system: SK-MEL-2 melanoma
OVCAR-5 ovarian = system: OVCAR-5 ovarian
HCT-15 colon = system: HCT-15 colon
CCRF-CEM leukemia = system: CCRF-CEM leukemia
PC-3 prostate = system: PC-3 prostate
HS 578T breast = system: HS 578T breast
SK-MEL-28 melanoma = system: SK-MEL-28 melanoma
EKVX NSCLC = system: EKVX NSCLC
DU-145 prostate = system: DU-145 prostate
T-47D breast = system: T-47D breast

| SMILES | TGI (SK-MEL-2 melanoma) | TGI (OVCAR-5 ovarian) | TGI (HCT-15 colon) | TGI (CCRF-CEM leukemia) | TGI (PC-3 prostate) | TGI (HS 578T breast) | TGI (SK-MEL-28 melanoma) | TGI (EKVX NSCLC) | TGI (DU-145 prostate) | TGI (T-47D breast) | GI50 (SK-MEL-2 melanoma) | GI50 (OVCAR-5 ovarian) | GI50 (CCRF-CEM leukemia) | GI50 (PC-3 prostate) | GI50 (HS 578T breast) | GI50 (SK-MEL-28 melanoma) | GI50 (EKVX NSCLC) | GI50 (DU-145 prostate) | GI50 (T-47D breast) | GI50 (HCT-15 colon) |
| --- | --- | --- | --- | --- | --- | --- | --- | --- | --- | --- | --- | --- | --- | --- | --- | --- | --- | --- | --- | --- |
| CNC(=O)Nc1ccccc1 | > 100 µM | > 100 µM | > 100 µM | > 100 µM | > 100 µM | > 100 µM | > 100 µM | > 100 µM | > 100 µM | > 100 µM |  |  |  |  |  |  |  |  |  |  |
| Nc1nc(=O)n(CC(O)CO)s1 (stereo unspecified) | > 100 µM | > 100 µM | > 100 µM | > 100 µM |  |  |  | > 100 µM |  |  |  |  |  |  |  |  |  |  |  |  |
| C[N+](C)(CCO)CCN1c2ccccc2Sc2ccccc21 | > 10 µM | > 10 µM | > 10 µM | > 10 µM | > 10 µM | > 10 µM | > 10 µM | > 10 µM | > 10 µM | > 10 µM |  |  |  |  |  |  |  |  |  |  |
| CC(=O)C1=C(O)CCC1=O | > 100 µM | > 100 µM |  | > 100 µM | > 100 µM | > 100 µM | > 100 µM | > 100 µM | > 100 µM | > 100 µM |  |  |  |  |  |  |  |  |  |  |
| COc1cc2c(cc1OCCCN1CCN(c3ncnc4ccccc34)CC1)N=CC1CCCN1C2=O (stereo unspecified) | 0.512 µM | 0.0717 µM |  | 0.48 µM | 0.0973 µM | 0.0568 µM | 0.103 µM | 0.677 µM | 0.311 µM | 0.0757 µM | 0.0646 µM | 0.0263 µM | < 0.0146 µM | 0.0232 µM | < 0.0177 µM | 0.0336 µM | 0.152 µM | 0.0278 µM | 0.0222 µM |  |
| C[C@]12CCC(=O)C=C1CC[C@@H]1[C@@H]2[C@@H](O)C[C@@]2(C)[C@H]1CC[C@]2(O)C(=O)COC(=O)C1CCCC1 | > 100 µM | > 100 µM | > 100 µM | > 100 µM | > 100 µM | > 100 µM | > 100 µM | > 100 µM | > 100 µM | > 100 µM |  |  |  |  |  |  |  |  |  |  |
| O=C(NNC(=O)c1nsc2ccccc12)c1ccc(Cl)cc1 | 45.7 µM | 46.4 µM | 36.4 µM | 38.1 µM |  |  | 36.1 µM | 42.3 µM |  |  |  |  |  |  |  |  |  |  |  |  |
| COc1ccc2nc3ccccc3c(NCc3ccc(C)cc3)c2c1 | 3.68 µM | 6.02 µM | 4.76 µM | 11.4 µM | 4.49 µM |  | 3.29 µM | 7.94 µM | 7.68 µM | 4.42 µM | 1.85 µM | 2.1 µM | 2.37 µM | 1.64 µM |  | 1.75 µM | 2.5 µM | 2.64 µM | 1.89 µM | 1.73 µM |
| Cn1c(=O)c2c(nc(NCCNc3nc4c(c(=O)n(C)c(=O)n4C)n3C)n2C)n(C)c1=O | > 100 µM | > 100 µM | > 100 µM | > 100 µM | > 100 µM | > 100 µM | > 100 µM | > 100 µM | > 100 µM | > 100 µM |  |  |  |  |  |  |  |  |  |  |
| O=S(O)c1cc(Cl)cc(Cl)c1OCc1ccccc1 | > 100 µM | > 100 µM |  | > 100 µM |  |  | > 100 µM | > 100 µM |  |  |  |  |  |  |  |  |  |  |  |  |
| COc1cc2c(cc1OC)-c1cc3ccc(OC)c(OC)c3c[n+]1CC2 | > 100 µM | > 100 µM | > 100 µM | > 100 µM | > 100 µM | > 100 µM | > 100 µM | > 100 µM | > 100 µM | > 100 µM |  |  |  |  |  |  |  |  |  |  |
